According to US12077503B2, “Substituted cyclic amides and their use as herbicides” (FMC CORPORATION, priority 2015, dated 2024):

What was measured:
Format in all cases: in vivo
Kochia (Kochia scoparia) [1] = assay: Test A preemergence; conditions: Bassia scoparia, pre-emergence, 240 h; for pest or weed control at 125 g/ha: 125 g ai/ha, preemergence, 0 to 100 scale where 0 is no effect and 100 is complete control, read-out: Kochia plant response rating; for pest or weed control at 500 g/ha: 500 g ai/ha, Preemergence, visual injury vs untreated controls after approximately 10 d, read-out: Kochia plant response rating (0 to 100 scale where 0 is no effect and 100 is complete control)
Outline: (§1)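 Greenhouse, ~10 d after spray; visual injury vs untreated controls, 0 = no effect, 100 = complete control. Preemergence: directed soil spray over planted seeds. Postemergence: plants 2–10 cm, 1–2 leaf stage. Loam/sand blend. Compound in non-phytotoxic solvent with surfactant.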

[2] = test system: barnyardgrass (Echinochloa crus-galli); assay: Test A preemergence; conditions: Echinochloa crus-galli, pre-emergence, 240 h; for pest or weed control at 125 g/ha: 125 g ai/ha, preemergence, 0 to 100 scale where 0 is no effect and 100 is complete control, read-out: Barnyardgrass plant response rating; for pest or weed control at 500 g/ha: 500 g ai/ha, Preemergence, visual injury vs untreated controls after approximately 10 d, read-out: Barnyardgrass plant response rating (0 to 100 scale where 0 is no effect and 100 is complete control)
Outline: as §1

[3] = test system: giant foxtail (Setaria faberii); assay: Test A preemergence; conditions: Setaria faberi, pre-emergence, 240 h; for pest or weed control at 125 g/ha: 125 g ai/ha, preemergence, 0 to 100 scale where 0 is no effect and 100 is complete control, read-out: Foxtail, Giant plant response rating; for pest or weed control at 500 g/ha: 500 g ai/ha, Preemergence, visual injury vs untreated controls after approximately 10 d, read-out: Foxtail, Giant plant response rating (0 to 100 scale where 0 is no effect and 100 is complete control)
Outline: as §1

[4] = test system: pigweed (Amaranthus retroflexus); assay: Test A preemergence; conditions: Amaranthus retroflexus, pre-emergence, 240 h; for pest or weed control at 125 g/ha: 125 g ai/ha, preemergence, 0 to 100 scale where 0 is no effect and 100 is complete control, read-out: Pigweed plant response rating; for pest or weed control at 500 g/ha: 500 g ai/ha, Preemergence, visual injury vs untreated controls after approximately 10 d, read-out: Pigweed plant response rating (0 to 100 scale where 0 is no effect and 100 is complete control)
[5] = test system: ragweed (common ragweed, Ambrosia elatior); assay: Test A preemergence; conditions: Ambrosia artemisiifolia, pre-emergence, 240 h; for pest or weed control at 125 g/ha: 125 g ai/ha, preemergence, 0 to 100 scale where 0 is no effect and 100 is complete control, read-out: Ragweed plant response rating; for pest or weed control at 500 g/ha: 500 g ai/ha, Preemergence, visual injury vs untreated controls after approximately 10 d, read-out: Ragweed plant response rating (0 to 100 scale where 0 is no effect and 100 is complete control)
Outline: as §1

[6] = test system: ryegrass, Italian (Italian ryegrass, Lolium multiflorum); assay: Test A preemergence; conditions: Lolium multiflorum, pre-emergence, 240 h; for pest or weed control at 125 g/ha: 125 g ai/ha, preemergence, 0 to 100 scale where 0 is no effect and 100 is complete control, read-out: Ryegrass, Italian plant response rating; for pest or weed control at 500 g/ha: 500 g ai/ha, Preemergence, visual injury vs untreated controls after approximately 10 d, read-out: Ryegrass, Italian plant response rating (0 to 100 scale where 0 is no effect and 100 is complete control)
Outline: as §1

Kochia (Kochia scoparia) [7] = assay: Test A postemergence; conditions: Bassia scoparia, post-emergence, 240 h, 125 g ai/ha, postemergence, visual injury rating after approximately 10 d; read-out: Kochia plant response rating (0 to 100 scale, 0 no effect, 100 complete control)
Outline: as §1

[8] = test system: barnyardgrass (Echinochloa crus-galli); assay: Test A postemergence; conditions: Echinochloa crus-galli, post-emergence, 240 h, 125 g ai/ha, postemergence, visual injury rating after approximately 10 d; read-out: Barnyardgrass plant response rating (0 to 100 scale, 0 no effect, 100 complete control)
Outline: as §1

[9] = test system: giant foxtail (Setaria faberii); assay: Test A postemergence; conditions: Setaria faberi, post-emergence, 240 h, 125 g ai/ha, postemergence, visual injury rating after approximately 10 d; read-out: Foxtail, Giant plant response rating (0 to 100 scale, 0 no effect, 100 complete control)
Outline: as §1

[10] = test system: wheat (Triticum aestivum); assay: Test A postemergence; conditions: Triticum aestivum, post-emergence, 240 h, 125 g ai/ha, postemergence, visual injury rating after approximately 10 d; read-out: Wheat plant response rating (0 to 100 scale, 0 no effect, 100 complete control)
Outline: as §1

[11] = test system: barnyardgrass (Echinochloa crus-galli); assay: Test B flooded paddy test; conditions: Echinochloa crus-galli, Flood, 250 g ai/ha; scale of 0 to 100 where 0 is no effect and 100 is complete control; read-out: Barnyardgrass plant response rating
Outline: (§2)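 Flooding to 3 cm over soil accompanied treatment, which consisted of adding compound to the standing water around 2-leaf plants; depth was then maintained. Visual assessment versus controls followed at 13 to 15 d (scale 0–100, 0 meaning no effect).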

[12] = test system: ducksalad (Heteranthera limosa); assay: Test B flooded paddy test; conditions: Heteranthera limosa, Flood, 250 g ai/ha; scale of 0 to 100 where 0 is no effect and 100 is complete control; read-out: Ducksalad plant response rating
Outline: as §2

rice (Oryra sativa) = assay: Test B flooded paddy test; conditions: Oryza sativa, Flood, 250 g ai/ha; scale of 0 to 100 where 0 is no effect and 100 is complete control; read-out: Rice plant response rating
Outline: as §2

[13] = test system: sedge, umbrella (small-flower umbrella sedge, Cyperus difformis); assay: Test B flooded paddy test; conditions: Cyperus difformis, Flood, 250 g ai/ha; scale of 0 to 100 where 0 is no effect and 100 is complete control; read-out: Sedge, Umbrella plant response rating
Outline: as §2

`CN1C[C@H](c2cc(F)c(F)c(F)c2)[C@@H](C(=O)Nc2ccccc2F)C1=O` [Compound 878] showed a pest or weed control at 125 g/ha (Kochia (Kochia scoparia) [1]) of 70%, a pest or weed control at 500 g/ha (Kochia (Kochia scoparia) [1]) of 90% and a pest or weed control at 125 g/ha [2] of 100%. It also gave a pest or weed control at 500 g/ha [2] of 100%, a pest or weed control at 125 g/ha [3] of 100% and a pest or weed control at 500 g/ha [3] of 100%. For the same molecule, the pest or weed control at 125 g/ha [4] was 0%, the pest or weed control at 500 g/ha [4] was 40% and the pest or weed control at 125 g/ha [5] was 30%. For the same molecule, the pest or weed control at 500 g/ha [5] was 80%, the pest or weed control at 125 g/ha [6] was 30% and the pest or weed control at 500 g/ha [6] was 70%. The pest or weed control at 125 g/ha (Kochia (Kochia scoparia) [7]) was 20%, the pest or weed control at 125 g/ha [8] was 100% and the pest or weed control at 125 g/ha [9] was 80%. The plant injury at 125 g/ha [10] was 60%, the pest or weed control at 250 g/ha [11] was 85% and the pest or weed control at 250 g/ha [12] was 100%. For the same molecule, the pest or weed control at 250 g/ha (rice (Oryra sativa)) was 0% and the pest or weed control at 250 g/ha [13] was 0%.

Molecule `Cc1cc(C)cc([C@H]2CNC(=O)[C@@H]2C(=O)Nc2cccc(F)c2F)c1` [Compound 889] has a pest or weed control at 125 g/ha (Kochia (Kochia scoparia) [1]) of 80%, a pest or weed control at 500 g/ha (Kochia (Kochia scoparia) [1]) of 80% and a pest or weed control at 125 g/ha [2] of 90%. For the same molecule, the pest or weed control at 500 g/ha [2] was 90%, the pest or weed control at 125 g/ha [3] was 90% and the pest or weed control at 500 g/ha [3] was 90%. For the same molecule, the pest or weed control at 125 g/ha [4] was 0%, the pest or weed control at 500 g/ha [4] was 0% and the pest or weed control at 125 g/ha [5] was 30%. For the same molecule, the pest or weed control at 500 g/ha [5] was 40%, the pest or weed control at 125 g/ha [6] was 30% and the pest or weed control at 500 g/ha [6] was 40%. It also gave a pest or weed control at 125 g/ha (Kochia (Kochia scoparia) [7]) of 0%, a pest or weed control at 125 g/ha [8] of 70% and a pest or weed control at 125 g/ha [9] of 40%. The plant injury at 125 g/ha [10] was 0%, the pest or weed control at 250 g/ha [11] was 60% and the pest or weed control at 250 g/ha [12] was 75%. For the same molecule, the pest or weed control at 250 g/ha (rice (Oryra sativa)) was 0% and the pest or weed control at 250 g/ha [13] was 0%.

`COc1c(F)ccc([C@H]2CNC(=O)[C@@H]2C(=O)Nc2ccc(F)c(F)c2F)c1Cl` [Compound 890] was tested, and the pest or weed control at 125 g/ha (Kochia (Kochia scoparia) [1]) was 40%, the pest or weed control at 500 g/ha (Kochia (Kochia scoparia) [1]) was 90% and the pest or weed control at 125 g/ha [2] was 90%. It also gave a pest or weed control at 500 g/ha [2] of 90%, a pest or weed control at 125 g/ha [3] of 90% and a pest or weed control at 500 g/ha [3] of 90%. For the same molecule, the pest or weed control at 125 g/ha [4] was 30%, the pest or weed control at 500 g/ha [4] was 50% and the pest or weed control at 125 g/ha [5] was 0%. It also gave a pest or weed control at 500 g/ha [5] of 0%, a pest or weed control at 125 g/ha [6] of 50% and a pest or weed control at 500 g/ha [6] of 70%. The pest or weed control at 125 g/ha (Kochia (Kochia scoparia) [7]) was 60%, the pest or weed control at 125 g/ha [8] was 90% and the pest or weed control at 125 g/ha [9] was 70%. The plant injury at 125 g/ha [10] was 0%, the pest or weed control at 250 g/ha [11] was 60% and the pest or weed control at 250 g/ha [12] was 90%. It also gave a pest or weed control at 250 g/ha (rice (Oryra sativa)) of 0% and a pest or weed control at 250 g/ha [13] of 0%.

`COc1c(F)ccc([C@H]2CNC(=O)[C@@H]2C(=O)Nc2ccccc2C(F)(F)F)c1Cl` [Compound 891] showed a pest or weed control at 125 g/ha (Kochia (Kochia scoparia) [1]) of 0%, a pest or weed control at 500 g/ha (Kochia (Kochia scoparia) [1]) of 20% and a pest or weed control at 125 g/ha [2] of 60%. For the same molecule, the pest or weed control at 500 g/ha [2] was 80%, the pest or weed control at 125 g/ha [3] was 80% and the pest or weed control at 500 g/ha [3] was 90%. It also gave a pest or weed control at 125 g/ha [4] of 0%, a pest or weed control at 500 g/ha [4] of 0% and a pest or weed control at 125 g/ha [5] of 0%. It also gave a pest or weed control at 500 g/ha [5] of 0%, a pest or weed control at 125 g/ha [6] of 0% and a pest or weed control at 500 g/ha [6] of 30%. It also gave a pest or weed control at 125 g/ha (Kochia (Kochia scoparia) [7]) of 0%, a pest or weed control at 125 g/ha [8] of 50% and a pest or weed control at 125 g/ha [9] of 40%. The plant injury at 125 g/ha [10] was 0%, the pest or weed control at 250 g/ha [11] was 0% and the pest or weed control at 250 g/ha [12] was 100%. For the same molecule, the pest or weed control at 250 g/ha (rice (Oryra sativa)) was 20% and the pest or weed control at 250 g/ha [13] was 0%.
